Data from PMC8222254, “Self-assembly of an anion receptor with metal-dependent kinase inhibition and potent in vitro anti-cancer properties” (Nature Communications, 2021).
Several values for one entry are separate records, joined by “and”; a condition that tells them apart may be missing. Equal values may be shown once. Read-outs that look alike come from different tables or passages of the source.

How the values were obtained:
Assay in all cases: Chemosensitivity, 96 h continuous exposure, MTT assay;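 on SI (NPI): adult human brain neural progenitor non-cancer cells from an epilepsy surgery patient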;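 on Selectivity Index using the NPI non-cancer cell line: adult human brain neural progenitor non-cancer cells from an epilepsy surgery patient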
Format in all cases: cell-based, human
HT-29 = details: for Selectivity index (ARPE19): IC50 ARPE-19 / IC50 HT29; for Selectivity index (MCF10A): IC50 MCF10A / IC50 HT29; for Relative potency (+ anion to no anion), Ratio + anion:no anion: ratio of IC50, HT29; for Selectivity indices relative to ARPE-19, Ratio + anion:no anion: ratio of SI (ARPE-19); for Selectivity indices relative to MCF10A, Ratio + anion:no anion: ratio of SI (MCF 10A)
Procedure, shortened: (§1)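 Cells were seeded overnight at 37 °C (2 × 10^3/well; GBM1 at 3 × 10^3/well on poly-L-ornithine/laminin in Neurobasal with hFGF/rhEGF), then exposed to compound concentration ranges for 96 h. Viability was read by MTT (4 h, formazan in DMSO, A540) and IC50 taken from dose–response curves.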

MiaPaCa2 = details: for Selectivity index (ARPE19): IC50 ARPE-19 / IC50 MiaPaCa2; for Selectivity index (MCF10A): IC50 MCF10A / IC50 MiaPaCa2; for Relative potency (+ anion to no anion), Ratio + anion:no anion: ratio of IC50, MiaPaCa2; for Selectivity indices relative to ARPE-19, Ratio + anion:no anion: ratio of SI (ARPE-19); for Selectivity indices relative to MCF10A, Ratio + anion:no anion: ratio of SI (MCF 10A)
Procedure, shortened: as §1

HCT116 p53-/- = details: for IC50 / Selectivity indices relative to ARPE-19, Ratio + anion:no anion / Selectivity indices relative to MCF10A, Ratio + anion:no anion: HCT116 p53-/-; for Selectivity index (ARPE19): IC50 ARPE-19 / IC50 HCT116 p53-/-; for Selectivity index (MCF10A): IC50 MCF10A / IC50 HCT116 p53-/-; for Relative potency (+ anion to no anion), Ratio + anion:no anion: ratio of IC50, HCT116 p53-/-; for Selectivity indices relative to ARPE-19, Ratio + anion:no anion: ratio of SI (ARPE-19); for Selectivity indices relative to MCF10A, Ratio + anion:no anion: ratio of SI (MCF 10A)
Procedure, shortened: as §1

PSN1 = details: for Selectivity index (ARPE19): IC50 ARPE-19 / IC50 PSN1; for Selectivity index (MCF10A): IC50 MCF10A / IC50 PSN1; for Relative potency (+ anion to no anion), Ratio + anion:no anion: ratio of IC50, PSN1; for Selectivity indices relative to ARPE-19, Ratio + anion:no anion: ratio of SI (ARPE-19); for Selectivity indices relative to MCF10A, Ratio + anion:no anion: ratio of SI (MCF 10A)
Procedure, shortened: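 H460 lung and PSN1 pancreatic carcinoma lines, grown in RPMI-1640 with 10% FBS, were plated at 2 × 10^3 cells/well, dosed across a concentration range for 96 h, then given MTT for 4 h. Formazan absorbance at 540 nm gave IC50 values.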

[1] = HT29, mean of replicates, read-out: Mean IC50
[2] = HT29, read-out: Mean IC50 values
[3] = MiaPaCa2, mean of replicates, read-out: Mean IC50
[4] = MiaPaCa2, read-out: Mean IC50 values
[5] = mean of replicates, read-out: Mean IC50
[6] = PSN1, mean of replicates, read-out: Mean IC50
[7] = PSN1, read-out: Mean IC50 values

## [Cu+2].[Cu+2].[Cu+2].c1ccc(-c2csc(NCCN(CCNc3nc(-c4ccccn4)cs3)CCNc3nc(-c4ccccn4)cs3)n2)nc1.c1ccc(-c2csc(NCCN(CCNc3nc(-c4ccccn4)cs3)CCNc3nc(-c4ccccn4)cs3)n2)nc1 [[L2Cu3]6+]
HT-29; [1]
  IC50: 213 nM
HT-29; [2]
  IC50: 214 nM
HT-29; HT-29, 96 h, MTT, individual run, read-out: IC50 values for each replicate
  IC50: 184 nM and 210 nM and 273 nM and 226 nM and 174 nM
HT-29; HT-29, 96 h, MTT, mean of at least 3 independent experiments, read-out: Mean IC50
  IC50: 214 nM
HT-29
  Selectivity index (ARPE19): 245.93
  Selectivity index (MCF10A): 225.51
  Relative potency (+ anion to no anion), Ratio + anion:no anion: 1
HT-29; IC50 NP1 / IC50 HT29
  Selectivity Index using the NPI non-cancer cell line: 201.36
HT-29; mean IC50 ARPE-19 / mean IC50 HT-29
  SI (ARPE19): 245.93
HT-29; mean IC50 MCF10A / mean IC50 HT-29
  SI (MCF10A): 225.51
HT-29; mean IC50 NP1 / mean IC50 HT-29
  SI (NPI): 201.36
HT-29; HT29
  Selectivity indices relative to ARPE-19, Ratio + anion:no anion: 1
  Selectivity indices relative to MCF10A, Ratio + anion:no anion: 1
MiaPaCa2
  Selectivity index (ARPE19): 4.46
  Selectivity index (MCF10A): 4.09
  Relative potency (+ anion to no anion), Ratio + anion:no anion: 1
MiaPaCa2; IC50 NP1 / IC50 MiaPaCa2
  Selectivity Index using the NPI non-cancer cell line: 3.65
MiaPaCa2; MiaPaCa2, 96 h, MTT, individual run, read-out: IC50 values for each replicate
  IC50: 17100 nM and 6600 nM and 6320 nM and 5210 nM and 18000 nM and 17600 nM
MiaPaCa2; MiaPaCa2, 96 h, MTT, mean of at least 3 independent experiments, listed as [L2Cu3]^6+, read-out: Mean IC50
  IC50: > 10000 nM
MiaPaCa2; MiaPaCa2, 96 h, MTT, mean of at least 3 independent experiments, read-out: Mean IC50
  IC50: 11800 nM
MiaPaCa2; [3]
  IC50: 11800 nM
MiaPaCa2; [4]
  IC50: 11800 nM
MiaPaCa2; mean IC50 ARPE-19 / mean IC50 MiaPaCa2
  SI (ARPE19): 4.46
MiaPaCa2; mean IC50 MCF10A / mean IC50 MiaPaCa2
  SI (MCF10A): 4.09
MiaPaCa2; mean IC50 NP1 / mean IC50 MiaPaCa2
  SI (NPI): 3.65
MiaPaCa2; MiaPaCa2
  Selectivity indices relative to ARPE-19, Ratio + anion:no anion: 1
  Selectivity indices relative to MCF10A, Ratio + anion:no anion: 1
HCT116 p53-/-; 96 h, MTT, individual run, read-out: IC50 values for each replicate
  IC50: 238 nM and 90 nM and 189 nM and 87 nM and 67 nM and 155 nM
HCT116 p53-/-; 96 h, MTT, mean of at least 3 independent experiments, read-out: Mean IC50
  IC50: 137 nM
HCT116 p53-/-; [5]
  IC50: 137 nM
HCT116 p53-/-; read-out: Mean IC50 values
  IC50: 137 nM
HCT116 p53-/-
  Selectivity index (ARPE19): 384.16 and 384.82
  Selectivity index (MCF10A): 352.26
  Relative potency (+ anion to no anion), Ratio + anion:no anion: 1
  Selectivity indices relative to ARPE-19, Ratio + anion:no anion: 1
  Selectivity indices relative to MCF10A, Ratio + anion:no anion: 1
HCT116 p53-/-; IC50 NP1 / IC50 HCT116 p53-/-
  Selectivity Index using the NPI non-cancer cell line: 314.53
HCT116 p53-/-; mean IC50 ARPE-19 / mean IC50 HCT116 p53-/-
  SI (ARPE19): 384.16
HCT116 p53-/-; mean IC50 MCF10A / mean IC50 HCT116 p53-/-
  SI (MCF10A): 352.26
HCT116 p53-/-; mean IC50 NP1 / mean IC50 HCT116 p53-/-
  SI (NPI): 314.53
PSN1
  Selectivity index (ARPE19): 8.16
  Selectivity index (MCF10A): 7.48
  Relative potency (+ anion to no anion), Ratio + anion:no anion: 1
PSN1; IC50 NP1 / IC50 PSN1
  Selectivity Index using the NPI non-cancer cell line: 6.68
PSN1; PSN1, 96 h, MTT, individual run, read-out: IC50 values for each replicate
  IC50: 6270 nM and 6080 nM and 7010 nM
PSN1; PSN1, 96 h, MTT, mean of at least 3 independent experiments, listed as [L2Cu3]^6+, read-out: Mean IC50
  IC50: > 1000 nM
PSN1; PSN1, 96 h, MTT, mean of at least 3 independent experiments, read-out: Mean IC50
  IC50: 6450 nM
PSN1; [6]
  IC50: 6450 nM
PSN1; [7]
  IC50: 6450 nM
PSN1; mean IC50 ARPE-19 / mean IC50 PSN1
  SI (ARPE19): 8.16
PSN1; mean IC50 MCF10A / mean IC50 PSN1
  SI (MCF10A): 7.48
PSN1; mean IC50 NP1 / mean IC50 PSN1
  SI (NPI): 6.68
PSN1; PSN1
  Selectivity indices relative to ARPE-19, Ratio + anion:no anion: 1
  Selectivity indices relative to MCF10A, Ratio + anion:no anion: 1

## O=P(O)(O)Oc1ccccc1.[Zn+2].[Zn+2].[Zn+2].c1ccc(-c2csc(NCCN(CCNc3nc(-c4ccccn4)cs3)CCNc3nc(-c4ccccn4)cs3)n2)nc1.c1ccc(-c2csc(NCCN(CCNc3nc(-c4ccccn4)cs3)CCNc3nc(-c4ccccn4)cs3)n2)nc1 [[L2Zn3(O3POPh)]4+]
HT-29; [1]
  IC50: 379 nM
HT-29; [2]
  IC50: 379 nM
HT-29; HT-29, single replicate, read-out: IC50 values for each replicate
  IC50: 733 nM and 271 nM and 247 nM and 265 nM
HT-29
  Selectivity index (ARPE19): 607.52
  Selectivity index (MCF10A): 138.13
  Relative potency (+ anion to no anion), Ratio + anion:no anion: 2.24
HT-29; HT29
  Selectivity indices relative to ARPE-19, Ratio + anion:no anion: 0.653
  Selectivity indices relative to MCF10A, Ratio + anion:no anion: 0.144
MiaPaCa2
  Selectivity index (ARPE19): 4.94
  Selectivity index (MCF10A): 1.12
  Relative potency (+ anion to no anion), Ratio + anion:no anion: 0.79
MiaPaCa2; [3]
  IC50: 46600 nM
MiaPaCa2; [4]
  IC50: 46600 nM
MiaPaCa2; MiaPaCa2, single replicate, read-out: IC50 values for each replicate
  IC50: 45400 nM and 47800 nM and 46800 nM
MiaPaCa2; MiaPaCa2
  Selectivity indices relative to ARPE-19, Ratio + anion:no anion: 1.858
  Selectivity indices relative to MCF10A, Ratio + anion:no anion: 0.410
HCT116 p53-/-; [5]
  IC50: 85 nM
HCT116 p53-/-; read-out: Mean IC50 values
  IC50: 85 nM
HCT116 p53-/-; single replicate, read-out: IC50 values for each replicate
  IC50: 155 nM and 65 nM and 36 nM
HCT116 p53-/-
  Selectivity index (ARPE19): 2708.82
  Selectivity index (MCF10A): 615.92
  Relative potency (+ anion to no anion), Ratio + anion:no anion: 1.18
  Selectivity indices relative to ARPE-19, Ratio + anion:no anion: 1.240
  Selectivity indices relative to MCF10A, Ratio + anion:no anion: 0.274
PSN1
  Selectivity index (ARPE19): 1338.66
  Selectivity index (MCF10A): 304.38
  Relative potency (+ anion to no anion), Ratio + anion:no anion: 0.04
PSN1; [6]
  IC50: 172 nM
PSN1; [7]
  IC50: 172 nM
PSN1; PSN1, single replicate, read-out: IC50 values for each replicate
  IC50: 90 nM and 171 nM and 256 nM
PSN1; PSN1 cell line, anion pre-encapsulated
  activity relative to [L2Zn3(PO4)]3+ or [L2Zn3]6+: significantly more active
PSN1; PSN1
  Selectivity indices relative to ARPE-19, Ratio + anion:no anion: 37.826
  Selectivity indices relative to MCF10A, Ratio + anion:no anion: 8.367
